Results as given in publication PMC7522794, “Synthesis and evaluation of novel 2,4-disubstituted arylthiazoles against T. brucei” (RSC Medicinal Chemistry, 2019).

How the values were obtained:
[1] = test system: Bloodstream form T. brucei (strain 427); assay: Trypanocidal activity against bloodstream form T. brucei (Alamar Blue growth inhibition); assay type: cell-based, Trypanosoma brucei; settings: Trypanosoma brucei, 48 hours + overnight Alamar Blue; for IC50: concentration that inhibits growth by 50%; for IC90: concentration that inhibits growth by 90%
Experimental: Bloodstream form T. brucei (strain 427) were cultured at 37 °C in modified Iscove's medium. Trypanocidal activity was assessed by growing parasites in microtiter plates in the presence of various drug concentrations. […] The plates were incubated for 48 hours at 37 °C and 20 μL Alamar Blue was then added to each well. After an additional overnight incubation, the fluorescence was determined. Inhibition of growth was calculated by comparison with control values and IC50 and IC90 values were determined in triplicate using linear regression analysis.

[2] = Cytotoxic activity against rat skeletal myoblast L6 cells (Alamar Blue); assay type: cell-based; settings: rat, L6 cells (rat skeletal muscle line); cytotoxicity, 6 days incubation + 8 hours Alamar Blue
Experimental: (§1) Cytotoxicity against mammalian cells was assessed using microtitre plates. Briefly, L6 cells (a rat skeletal muscle line) were seeded at 1 × 10^4 mL^–1 in 200 μL of growth medium containing 7 different compound concentrations in a range previously established to encompass both the IC50 and IC90 values. The plates were incubated for 6 days at 37 °C and 20 μL Alamar Blue (Biosource UK Ltd) was then added to each well. After an additional 8 hours incubation, the fluorescence was determined using a FLUOstar Omega fluorescent plate reader (BMG Labtech). Inhibition of growth was calculated by comparison with control values and IC50 and IC90 values were determined in triplicate using linear regression analysis.

[3] = test system: L6 cells; assay: as above; assay type: cell-based; settings: ratio of IC50 values obtained with L6 cells and T. brucei
Experimental: as §1

O=C(NCCc1csc(-c2ccc(F)c(C34CC5CC(CC(C5)C3)C4)c2)n1)N1CCCCC1 [Compound 1j, N-{2-[2-(3-(1-Tricyclo[3.3.1.1^3,7]decyl)-4-fluorophenyl)thiazol-4-yl}ethyl)piperidine-1-yl-carboxamide]
IC50 [1]: 10.7 ± 0.3 µM | IC90 [1]: 12.6 ± 0.2 µM | IC50 [2]: < 10.3 µM | S.I. (selectivity index) [3]: <1

NCCc1csc(-c2ccc(C34CC5CC(CC(C5)C3)C4)cc2)n1 [Compound 2a, 2-{2-[4-(1-Tricyclo[3.3.1.1^3,7]decyl)phenyl]thiazol-4-yl}ethan-1-amine]
IC50 [1]: 0.8 ± 0.03 µM | IC90 [1]: 1.17 ± 0.01 µM | IC50 [2]: 4.08 ± 0.15 µM | S.I. (selectivity index) [3]: 5.1

CNCCc1csc(-c2ccc(C34CC5CC(CC(C5)C3)C4)cc2)n1 [Compound 2b, 2-{2-[4-(1-Tricyclo[3.3.1.1^3,7]decyl)phenyl]thiazol-4-yl}-N-methylethan-1-amine]
IC50 [1]: 0.59 ± 0.02 µM | IC90 [1]: 0.79 ± 0.01 µM | IC50 [2]: 0.96 ± 0.26 µM | S.I. (selectivity index) [3]: 1.6

Br.Nc1nc(-c2ccc(C34CC5CC(CC(C5)C3)C4)cc2)cs1 [Compound 3a, 4-[4-(1-Tricyclo[3.3.1.1^3,7]decyl)phenyl]thiazol-2-amine hydrobromide]
IC50 [1]: 22.5 ± 0.6 µM | IC90 [1]: 30.5 ± 4.5 µM | IC50 [2]: 13.8 ± 1.6 µM | S.I. (selectivity index) [3]: <1 | melting point: 345 °C (dec.)

Br.NCCc1nc(-c2ccc(C34CC5CC(CC(C5)C3)C4)cc2)cs1 [Compound 3c, 2-{4-[4-(1-Tricyclo[3.3.1.1^3,7]decyl)phenyl]thiazol-2-yl}ethanamine hydrobromide]
IC50 [1]: 2.74 ± 0.29 µM | IC90 [1]: 4.4 ± 0.07 µM | IC50 [2]: 4.16 ± 0.24 µM | S.I. (selectivity index) [3]: 1.5 | melting point: 261 to 263 °C

Br.CN(C)CCc1nc(-c2ccc(C34CC5CC(CC(C5)C3)C4)cc2)cs1 [Compound 3d, 2-{4-[4-(1-Tricyclo[3.3.1.1^3,7]decyl)phenyl]thiazol-2-yl}-N,N-dimethylethan-1-amine dihydrochloride]
IC50 [2]: 3.19 ± 0.25 µM | S.I. (selectivity index) [3]: 2.3 | melting point: 200 to 202 °C
